Experimental findings from ChEMBL document CHEMBL4814020, “Nonbisphosphonate inhibitors of Plasmodium falciparum FPPS/GGPPS” (Bioorg Med Chem Lett, 2021) are described below.

≈ marks a conversion by molar mass, not a printed value. Bounds are passed on as bounds.

The target of data set [1] is T1, Geranylgeranyl pyrophosphate synthase (Homo sapiens, UniProt O95749).
T1 sequence (O95749 whole entry): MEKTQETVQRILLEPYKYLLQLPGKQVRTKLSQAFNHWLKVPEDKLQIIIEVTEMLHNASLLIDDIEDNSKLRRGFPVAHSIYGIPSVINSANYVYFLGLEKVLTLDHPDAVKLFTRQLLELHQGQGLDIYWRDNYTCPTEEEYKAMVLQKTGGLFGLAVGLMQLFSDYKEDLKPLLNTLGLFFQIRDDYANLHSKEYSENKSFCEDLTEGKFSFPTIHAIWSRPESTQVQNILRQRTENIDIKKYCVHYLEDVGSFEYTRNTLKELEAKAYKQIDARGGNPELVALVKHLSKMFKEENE
The data set can be described thus: Inhibition of recombinant human N-terminal His6-tagged GGPPS assessed as reduction in pyrophosphate release using GPP as substrate upto 200 uM incubated for 30 mins followed by substrate addition by PPiLight detection reagent based luminescence assay. Particulars: 0.5 h; call rule not given here.

Data set [2] is described as follows: Inhibition of recombinant Plasmodium falciparum N-terminal His6-tagged GGPPS expressed in Escherichia coli expression system assessed as reduction in pyrophosphate release using GPP as substrate incubated for 30 mins followed by substrate addition by PPiLight detection reagent based luminescence assay.
The target of data set [3] is T2, Farnesyl pyrophosphate synthase (Homo sapiens, UniProt P14324).
T2 sequence (P14324 whole entry): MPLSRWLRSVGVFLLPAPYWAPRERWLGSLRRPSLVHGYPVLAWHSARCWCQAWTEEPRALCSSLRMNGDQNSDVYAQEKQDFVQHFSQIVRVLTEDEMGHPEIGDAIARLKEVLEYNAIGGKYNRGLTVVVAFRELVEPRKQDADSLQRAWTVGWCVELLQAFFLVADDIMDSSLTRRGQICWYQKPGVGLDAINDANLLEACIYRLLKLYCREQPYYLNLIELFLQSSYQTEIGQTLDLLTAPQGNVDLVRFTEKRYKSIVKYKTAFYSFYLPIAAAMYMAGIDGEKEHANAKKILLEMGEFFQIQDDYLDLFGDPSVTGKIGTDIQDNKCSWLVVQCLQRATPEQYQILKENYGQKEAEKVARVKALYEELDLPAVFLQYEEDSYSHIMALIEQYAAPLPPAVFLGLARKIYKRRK
The data set can be described thus: Inhibition of recombinant human N-terminal His6-tagged FPPS assessed as reduction in pyrophosphate release using GPP as substrate upto 200 uM incubated for 30 mins followed by substrate addition by PPiLight detection reagent based luminescence assay. Conditions: 0.5 h.

A short description of data set [4]: Kinetic solubility of compound. The format is physicochemical. Conditions: read-out: Kinetic_solubility.
Data set [5] concerns MDR1. The data set can be described thus: Apparent permeability in pig LLC-PK1 cells expressing MDR1 measured upto 360 mins. The format is ADME, cell-based, Sus scrofa.
A further data set concerns Plasmodium falciparum. The data set can be described thus: Antimalarial activity against Plasmodium falciparum infected in human RBC assessed as reduction in parasite growth measured after 72 hrs by flow cytometry analysis. Conditions: Erythrocyte. In kind it is functional, organism-based. (In general: In flow cytometry, cells or beads pass a laser one at a time.)
The test system of data set [6] is MDR1. The data set can be described thus: Efflux ratio of apparent permeability in pig LLC-PK1 cells expressing MDR1 measured upto 360 mins. The format is ADME, cell-based, Sus scrofa.
Data set [7] can be described thus: Metabolic stability in mouse liver microsomes assessed as intrinsic clearance. Conditions: read-out: CLH. The format is ADME, Microsome. Background: Liver microsomes are vesicles of endoplasmic reticulum, rich in cytochrome P450 enzymes.
The nature of data set [8]: Lipophilicity, logD of the compound in octanol-buffer at pH 7.4 measured after 18 hrs under shaking condition by reverse phase HPLC-MS analysis. In kind it is physicochemical.
Data set [9] can be described thus: Metabolic stability in human liver microsomes assessed as intrinsic clearance. In kind it is ADME, Microsome. Conditions: read-out: CLH.

On to `Cc1nc(-c2ccccc2)sc1C(=O)NCCCN1CCCCCC1`, for which the “inhibition (INH)” value in data set [1] and in [3] was “Not Active” each time. For the same compound, the IC50 in [2] amounted to 3790 nM.
On to `O=C(NCCCN1CCCCC1)c1cnc(-c2ccccc2)s1`, for which the “inhibition (INH)” value in data set [1] and in [3] was “Not Active” throughout. Besides, in data set [2], the IC50 stood at 2150 nM.
Turning to `O=C(NCCCN1CCC(F)CC1)c1cnc(-c2ccccc2)s1`, the “inhibition (INH)” value in [1] and in data set [3] was “Not Active” in each case. Also, in data set [2], the IC50 came to 2790 nM.
In the case of `O=C(NCCCN1CCCCCC1)c1ccc(-c2ccccc2)s1`, the “inhibition (INH)” value in data set [1] and in data set [3] was “Not Active” in each case. Besides, in data set [2], the IC50 came out at 1340 nM.
For the compound `O=C(NCCCN1CCCCCC1)c1cc(-c2ccccc2)ccn1`, the “inhibition (INH)” value in data set [1] and in data set [3] was “Not Active” each time. In [2], the 50% inhibitory concentration (IC50) worked out at 6080 nM.
For the compound `CC1CCCN1CCCNC(=O)c1cnc(-c2ccccc2)s1` (stereo not drawn), the “inhibition (INH)” value in data set [1] and in data set [3] was “Not Active” in each case. Besides, in data set [2], the IC50 is greater than 10000 nM.
As for `Cc1nc(C(=O)NCCCN2CCCCCC2)sc1-c1ccccc1`, the “inhibition (INH)” value in data set [1] and in data set [3] was “Not Active” each time. The concentration for half-maximal inhibition (IC50) in data set [2] was found to be 1030 nM.
Turning to `O=C(NCCCN1CCCCCC1)c1ncc(-c2ccccc2)s1`, the “inhibition (INH)” value in data set [1] and in data set [3] was “Not Active” throughout. Besides, the half-inhibitory concentration (IC50) in data set [2] was determined as 960 nM.
In the case of `O=C(NCCCN1CCCC1)c1cnc(-c2ccccc2)s1`, the “inhibition (INH)” value in data set [1] and in data set [3] was “Not Active” in each case. Further, the half-inhibitory concentration (IC50) in data set [2] is 3100 nM.
In the case of `O=C(CCCN1CCCCCC1)Nc1nnc(-c2ccc(F)cc2)s1`, in data set [4], the solubility kinetic was greater than 91 µg/mL. Moreover, the Papp at 6 h in the data set with MDR1 [5] is 12.6 ×10⁻⁶ cm/s. Further, the “inhibition (INH)” value in data set [1] and in data set [3] was “Not Active” each time. Also, the IC50 is 72 nM with Plasmodium falciparum and 1800 nM in [2]. In addition, the efflux ratio at 6 h with MDR1 [6] is 0.9. The values for the microsomal CLint in data set [7] and in data set [9] were less than 1 µL/min/mg and 39 µL/min/mg, respectively. The logD at 18 h in data set [8] is 1.97.
Regarding `Cc1c(C(=O)NCCCN2CCCCCC2)noc1-c1ccccc1`, the “inhibition (INH)” value in data set [1] and in [3] was “Not Active” throughout. Moreover, the IC50 in [2] was found to be 2030 nM.
On to `O=C(NCCCN1CCCCCC1=O)c1cnc(-c2ccccc2)s1`, for which the “inhibition (INH)” value in [1] and in data set [3] was “Not Active” in each case. Besides, the IC50 in data set [2] is greater than 10000 nM.
Regarding `O=C(NCCCN1CCCCCC1)c1nnc(-c2ccccc2)o1`, the “inhibition (INH)” value in data set [1] and in data set [3] was “Not Active” each time. Moreover, in [2], the IC50 came out at 8120 nM.
As to `O=C(NCCCN1CCCCCC1)c1cnc(-c2ccccc2)s1`, the “inhibition (INH)” value in data set [1] and in [3] was “Not Active” in each case. In addition, the half-maximal inhibitory concentration (IC50) in [2] is 800 nM.
As to `COC1CCN(CCCNC(=O)c2cnc(-c3ccccc3)s2)CC1`, the “inhibition (INH)” value in data set [1] and in [3] was “Not Active” each time. Further, the IC50 in data set [2] worked out at 6060 nM.
For `O=C(NCCCN1CCCCCC1)c1nnc(-c2ccccc2)s1`, the “inhibition (INH)” value in data set [1] and in data set [3] was “Not Active” in each case. Moreover, in [2], the half-maximal inhibitory concentration (IC50) is 1040 nM.
As to `Cn1c(-c2ccccc2)cnc1C(=O)NCCCN1CCCCCC1`, the “inhibition (INH)” value in data set [1] and in [3] was “Not Active” throughout. In addition, the 50% inhibitory concentration (IC50) in data set [2] is 13000 nM.
With `Cn1c(=O)c2cc(C(=O)NCCCN3CCCCCC3)sc2c2ccccc21`, the solubility kinetic in [4] was 69 µg/mL (≈ 174 µM). For the same compound, the Papp at 6 h with MDR1 [5] came out at 4.1 ×10⁻⁶ cm/s. Besides, the “inhibition (INH)” value in data set [1] and in [3] was “Not Active” each time. Further, the half-maximal inhibitory concentration (IC50) in the data set on Plasmodium falciparum came out at 90 nM; in [2] it was 820 nM. Besides, the efflux ratio at 6 h with MDR1 [6] is 6.8. The microsomal CLint in [7] is 483 µL/min/mg; in data set [9] it was less than 1 µL/min/mg. The logD at 18 h in data set [8] amounted to 1.89.
Regarding `O=C(NCCCN1CCCCCC1)c1cc(-c2ccccc2)on1`, the “inhibition (INH)” value in data set [1] and in data set [3] was “Not Active” in each case. Moreover, in data set [2], the IC50 was 1800 nM.
Regarding `O=C(CCCN1CCCCCC1)Nc1cnc(-c2ccccc2)s1`, the “inhibition (INH)” value in [1] and in data set [3] was “Not Active” throughout. Also, the 50% inhibitory concentration (IC50) in data set [2] stood at 1830 nM.
For `O=C(CCCN1CCCCCC1)Nc1cnc(-c2ccc(F)cc2)s1`, the solubility kinetic in data set [4] was greater than 97 µg/mL. In addition, the apparent permeability (Papp) at 6 h with MDR1 [5] came out at 9.5 ×10⁻⁶ cm/s. Moreover, the “inhibition (INH)” value in [1] and in data set [3] was “Not Active” throughout. Besides, the half-inhibitory concentration (IC50) with Plasmodium falciparum came to 37 nM; in data set [2], 1330 nM. Further, the efflux ratio at 6 h in the data set with MDR1 [6] was determined as 1.1. The microsomal CLint in [7] came out at 18 µL/min/mg; in data set [9] it was 29 µL/min/mg. Also, the logD at 18 h in data set [8] came out at 1.93.
Regarding `O=C(NCCCN1CCCCCC1)c1ncc(-c2ccccc2)o1`, the “inhibition (INH)” value in data set [1] and in [3] was “Not Active” in each case. Also, the IC50 in [2] was determined as 2380 nM.
For the compound `O=C(CCCN1CCCCCC1)Nc1cnc(-c2cccc(F)c2)s1`, the “inhibition (INH)” value in data set [1] and in data set [3] was “Not Active” in each case. The IC50 in data set [2] is 1420 nM.
As to `O=C(NCCCN1CCCCCC1)c1cc(-c2ccccc2)cs1`, the “inhibition (INH)” value in [1] and in [3] was “Not Active” in each case. For the same compound, the IC50 in [2] turned out to be 2480 nM.
Consider `O=C(CCCN1CCCCCC1)Nc1cnc(-c2ccc(F)c(F)c2)s1`, for which the solubility kinetic in data set [4] is greater than 94 µg/mL. The Papp at 6 h with MDR1 [5] worked out at 5.2 ×10⁻⁶ cm/s. Besides, the “inhibition (INH)” value in data set [1] and in [3] was “Not Active” in each case. Besides, the 50% inhibitory concentration (IC50) with Plasmodium falciparum came out at 40 nM; in data set [2], 1050 nM. For the same compound, the efflux ratio at 6 h with MDR1 [6] turned out to be 1.1. Further, the microsomal CLint in [7] was 10 µL/min/mg; in data set [9] it was 42 µL/min/mg. For the same compound, the logD at 18 h in [8] amounted to 2.3.
`O=C(NCCCN1CCOCC1)c1cnc(-c2ccccc2)s1`: the “inhibition (INH)” value in [1] and in data set [3] was “Not Active” each time. In addition, the IC50 in data set [2] amounted to 12000 nM.
On to `CN(C)CCCNC(=O)c1cnc(-c2ccccc2)s1`, for which the “inhibition (INH)” value in [1] and in [3] was “Not Active” each time. Moreover, in data set [2], the IC50 stood at 6000 nM.
For the compound `COc1cc(-c2ncc(NC(=O)CCCN3CCCCCC3)s2)ccc1F`, the “inhibition (INH)” value in data set [1] and in data set [3] was “Not Active” each time. In addition, the half-maximal inhibitory concentration (IC50) in data set [2] was 500 nM.
Turning to `CC1CCN(CCCNC(=O)c2cnc(-c3ccccc3)s2)C1` (stereo not drawn), the “inhibition (INH)” value in [1] and in [3] was “Not Active” throughout. The IC50 in data set [2] is 3150 nM.
With `O=C(CCCN1CCCCCC1)Nc1cnc(-c2ccccc2F)s1`, the “inhibition (INH)” value in [1] and in data set [3] was “Not Active” each time. The IC50 in [2] was determined as 950 nM.

Broadly, the IC50 is the concentration that gives 50% inhibition. A word on the Papp: it is a coefficient for how fast a substance crosses the barrier. By efflux ratio is commonly meant the permeability from basolateral to apical divided by that in the opposite direction, in the common usage. As a reminder, the logD is lipophilicity at a set pH, counting ionised and neutral species.
